# Measurements: patent US6358885B1, “Substituted phenylheterocyclic herbicides” (Mississippi State University, priority 1992, dated 2002)
# How the values were obtained:
# Test in all cases: Test G preemergence/postemergence greenhouse plant response rating 0 to 100
# [1] = test system: yellow nutsedge; format: in vivo, Cyperus esculentus; settings: Rate 125 g/ha, 0 to 100 scale
# Text: (§1) Seeds, rhizomes, or plant parts of alfalfa (Medicago ativa), annual bluegrass (Poa annua), bermudagrass (Cynodon dactylon), broadleaf signalgrass (Brachiaria plantaginea), common purslane (Portulaca oleracea), common ragweed (Ambrosia elatior), […] (Paspalum dilatatum), goosegrass (Eleusine indica), guineagrass (Panicum maximum), […] exaltata), johnsongrass (Sorghum halepense), large crabgrass (Digitaria sanguinalis), peanut (Arachis hypoagaea), pitted morningglory (Ipomoea lacunosa), purple nutsedge (Cyperus rotundus), sandbur (Cenchrus echinatus), smooth crabgrass (Digitaria ischaemum) and yellow nutsedge (Cyperus esculentus) were planted into greenhouse pots containing greenhouse planting medium. Each pot contained only one plant species. The test compound was dissolved in a non-phytotoxic solvent and applied preemergence and/or postemergence to the plants. Preemergence applications were made within one day of planting the seeds or plant parts. Postemergence applications were applied when the plants were in the two to four leaf stage (three to twenty cm). Test chemicals were dissolved in a non-phytotoxic solvent and applied preemergence and postemergence to the plants. Untreated control plants and treated plants were placed in the greenhouse and visually evaluated for injury at 13 to 21 days after herbicide application. […] A dash (-) response indicates no test result.
# [2] = test system: alfalfa; format: in vivo, Medicago ativa; settings: 0 to 100 scale
# Text: as §1
# [3] = test system: sandbur; format: in vivo, Cenchrus echinatus; settings: 0 to 100 scale
# Text: as §1
# [4] = test system: goosegrass; format: in vivo, Eleusine indica; settings: 0 to 100 scale
# Text: as §1
# [5] = test system: bermudagrass; format: in vivo, Cynodon dactylon; settings: 0 to 100 scale
# Text: as §1
# [6] = test system: common ragweed; format: in vivo, Ambrosia elatior; settings: 0 to 100 scale
# Text: as §1
# [7] = test system: annual bluegrass; format: in vivo, Poa annua; settings: 0 to 100 scale
# Text: as §1
# [8] = test system: pitted morningglory; format: in vivo, Ipomoea lacunosa; settings: 0 to 100 scale
# Text: as §1
# [9] = test system: purple nutsedge; format: in vivo, Cyperus rotundus; settings: Rate 125 g/ha, 0 to 100 scale
# Text: as §1
# [10] = test system: large crabgrass; format: in vivo, Digitaria sanguinalis; settings: 0 to 100 scale
# Text: as §1
# [11] = test system: guineagrass; format: in vivo, Panicum maximum; settings: 0 to 100 scale
# Text: as §1
# [12] = test system: peanut; format: in vivo, Arachis hypoagaea; settings: 0 to 100 scale
# Text: as §1
# [13] = test system: common purslane; format: in vivo, Portulaca oleracea; settings: 0 to 100 scale
# Text: as §1
# [14] = test system: dallisgrass; format: in vivo, Paspalum dilatatum; settings: 0 to 100 scale
# Text: as §1
# [15] = test system: johnsongrass; format: in vivo, Sorghum halepense; settings: 0 to 100 scale
# Text: as §1
# [16] = test system: smooth crabgrass; format: in vivo, Digitaria ischaemum; settings: 0 to 100 scale
# Text: as §1
# [17] = test system: itchgrass; format: in vivo, Rottboellia exaltata; settings: 0 to 100 scale
# Text: as §1
smiles,measurement,setting,value
Fc1cc(Cl)c(OCc2ccccc2)cc1-c1nn2c(c1Cl)CCCC2 [Compound 22],"Plant response rating, Yellow Nutsedge",[1]; POSTEMERGENCE,0
same,"Plant response rating, Yellow Nutsedge",[1]; PREEMERGENCE,0
same,"Plant response rating, Alfalfa Var.","[2]; POSTEMERGENCE, Rate 125 g/ha",0
same,"Plant response rating, Alfalfa Var.","[2]; POSTEMERGENCE, Rate 250 g/ha",0
same,"Plant response rating, Alfalfa Var.","[2]; PREEMERGENCE, Rate 125 g/ha",0
same,"Plant response rating, Alfalfa Var.","[2]; PREEMERGENCE, Rate 250 g/ha",0
same,"Plant response rating, S. Sandbur","[3]; POSTEMERGENCE, Rate 125 g/ha",0
same,"Plant response rating, S. Sandbur","[3]; POSTEMERGENCE, Rate 250 g/ha",0
same,"Plant response rating, S. Sandbur","[3]; PREEMERGENCE, Rate 125 g/ha",0
same,"Plant response rating, S. Sandbur","[3]; PREEMERGENCE, Rate 250 g/ha",0
same,"Plant response rating, Goosegrass","[4]; POSTEMERGENCE, Rate 125 g/ha",0
same,"Plant response rating, Goosegrass","[4]; POSTEMERGENCE, Rate 250 g/ha",0
same,"Plant response rating, Goosegrass","[4]; PREEMERGENCE, Rate 125 g/ha",0
same,"Plant response rating, Goosegrass","[4]; PREEMERGENCE, Rate 250 g/ha",0
same,"Plant response rating, Bermudagrass","[5]; POSTEMERGENCE, Rate 125 g/ha",20
same,"Plant response rating, Bermudagrass","[5]; POSTEMERGENCE, Rate 250 g/ha",0
same,"Plant response rating, Bermudagrass","[5]; PREEMERGENCE, Rate 125 g/ha",0
same,"Plant response rating, Bermudagrass","[5]; PREEMERGENCE, Rate 250 g/ha",0
same,"Plant response rating, Cmn Ragweed","[6]; POSTEMERGENCE, Rate 125 g/ha",70
same,"Plant response rating, Cmn Ragweed","[6]; POSTEMERGENCE, Rate 250 g/ha",20
same,"Plant response rating, Cmn Ragweed","[6]; PREEMERGENCE, Rate 125 g/ha",0
same,"Plant response rating, Cmn Ragweed","[6]; PREEMERGENCE, Rate 250 g/ha",0
same,"Plant response rating, Ann Bluegrass","[7]; POSTEMERGENCE, Rate 125 g/ha",0
same,"Plant response rating, Ann Bluegrass","[7]; POSTEMERGENCE, Rate 250 g/ha",0
same,"Plant response rating, Ann Bluegrass","[7]; PREEMERGENCE, Rate 125 g/ha",0
same,"Plant response rating, Ann Bluegrass","[7]; PREEMERGENCE, Rate 250 g/ha",0
same,"Plant response rating, Pit Morninglory","[8]; POSTEMERGENCE, Rate 125 g/ha",20
same,"Plant response rating, Pit Morninglory","[8]; POSTEMERGENCE, Rate 250 g/ha",0
same,"Plant response rating, Pit Morninglory","[8]; PREEMERGENCE, Rate 125 g/ha",0
same,"Plant response rating, Pit Morninglory","[8]; PREEMERGENCE, Rate 250 g/ha",0
same,"Plant response rating, Purple Nutsedge",[9]; POSTEMERGENCE,0
same,"Plant response rating, Purple Nutsedge",[9]; PREEMERGENCE,0
same,"Plant response rating, Large Crabgrass","[10]; POSTEMERGENCE, Rate 125 g/ha",0
same,"Plant response rating, Large Crabgrass","[10]; POSTEMERGENCE, Rate 250 g/ha",0
same,"Plant response rating, Large Crabgrass","[10]; PREEMERGENCE, Rate 125 g/ha",0
same,"Plant response rating, Large Crabgrass","[10]; PREEMERGENCE, Rate 250 g/ha",0
same,"Plant response rating, Guineagrass","[11]; POSTEMERGENCE, Rate 125 g/ha",0
same,"Plant response rating, Guineagrass","[11]; POSTEMERGENCE, Rate 250 g/ha",0
same,"Plant response rating, Guineagrass","[11]; PREEMERGENCE, Rate 125 g/ha",0
same,"Plant response rating, Guineagrass","[11]; PREEMERGENCE, Rate 250 g/ha",0
same,"Plant response rating, Peanuts","[12]; POSTEMERGENCE, Rate 125 g/ha",0
same,"Plant response rating, Peanuts","[12]; POSTEMERGENCE, Rate 250 g/ha",0
same,"Plant response rating, Peanuts","[12]; PREEMERGENCE, Rate 125 g/ha",0
same,"Plant response rating, Peanuts","[12]; PREEMERGENCE, Rate 250 g/ha",0
same,"Plant response rating, Cmn Purslane","[13]; POSTEMERGENCE, Rate 125 g/ha",80
same,"Plant response rating, Cmn Purslane","[13]; POSTEMERGENCE, Rate 250 g/ha",70
same,"Plant response rating, Cmn Purslane","[13]; PREEMERGENCE, Rate 125 g/ha",0
same,"Plant response rating, Cmn Purslane","[13]; PREEMERGENCE, Rate 250 g/ha",0
same,"Plant response rating, Dallisgrass","[14]; POSTEMERGENCE, Rate 125 g/ha",0
same,"Plant response rating, Dallisgrass","[14]; POSTEMERGENCE, Rate 250 g/ha",0
same,"Plant response rating, Dallisgrass","[14]; PREEMERGENCE, Rate 125 g/ha",0
same,"Plant response rating, Dallisgrass","[14]; PREEMERGENCE, Rate 250 g/ha",0
same,"Plant response rating, Johnsongrass","[15]; POSTEMERGENCE, Rate 125 g/ha",0
same,"Plant response rating, Johnsongrass","[15]; POSTEMERGENCE, Rate 250 g/ha",0
same,"Plant response rating, Johnsongrass","[15]; PREEMERGENCE, Rate 125 g/ha",0
same,"Plant response rating, Johnsongrass","[15]; PREEMERGENCE, Rate 250 g/ha",0
same,"Plant response rating, Smooth Crabgras","[16]; POSTEMERGENCE, Rate 125 g/ha",0
same,"Plant response rating, Smooth Crabgras","[16]; POSTEMERGENCE, Rate 250 g/ha",0
same,"Plant response rating, Smooth Crabgras","[16]; PREEMERGENCE, Rate 125 g/ha",0
same,"Plant response rating, Smooth Crabgras","[16]; PREEMERGENCE, Rate 250 g/ha",0
same,"Plant response rating, Itchgrass","[17]; POSTEMERGENCE, Rate 125 g/ha",0
same,"Plant response rating, Itchgrass","[17]; POSTEMERGENCE, Rate 250 g/ha",0
same,"Plant response rating, Itchgrass","[17]; PREEMERGENCE, Rate 125 g/ha",0
same,"Plant response rating, Itchgrass","[17]; PREEMERGENCE, Rate 250 g/ha",0
